These results are taken from patent US9567317B2, “Multicomponent crystalline system comprising nilotinib and selected co-crystal formers” (BASF SE, priority 2012, dated 2017).

For the series the following is noted: relative humidity changed from 0 to 95% according to the measurement program (FIG. 4).

Turning to `Cc1cn(-c2cc(NC(=O)c3ccc(C)c(Nc4nccc(-c5cccnc5)n4)c3)cc(C(F)(F)F)c2)cn1.Cl.O.O` [Nilotinib monohydrochloride dihydrate form A], the “water content change (water uptake)” value is given as “Δm = 4.2%”. In the case of `Cc1cn(-c2cc(NC(=O)c3ccc(C)c(Nc4nccc(-c5cccnc5)n4)c3)cc(C(F)(F)F)c2)cn1.Cl.O` [Nilotinib monohydrochloride monohydrate form B], the “water content change (water uptake)” value was “Δm = 3.2%”.
